Experimental findings from PubChem BioAssay (NCI) are described below.

Values joined by “and” are separate entries in the source; they are usually repeats but may differ in a detail not shown here. Equal values may be shown once.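 Each compound was tested at five concentrations against cells in 96-well plates for 48 hours. The concentration for 50% growth inhibition is given as GI50. TGI denotes the concentration required for complete inhibition of growth.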 Some results are limits rather than exact numbers.

Assay in all cases: growth of human tumour cells (NCI), 48 h
Assay [1] has as its system HOP-62 NSCLC.
Assay [2] deals with U251 CNS.
Assay [3] relates to SK-MEL-5 melanoma.
The test system of assay [4] is MOLT-4 leukemia.
The test system of assay [5] is UACC-257 melanoma.
Assay [6] deals with SF-268 CNS.
The test system of assay [7] is SW-620 colon.
In assay [8] the test system is HCC-2998 colon.
In assay [9] the test system is CAKI-1 renal.
Assay [10] has as its system OVCAR-4 ovarian.

As to `COc1ccc(-c2[nH]ncc2-c2cc3c(c(OC)c2)OCC(=O)N3)cc1`, the GI50 is 0.544 µM in assay [1]; 0.481 µM in assay [2]; 0.595 µM in [3]; 0.528 µM in assay [4]; 3.23 µM in assay [5]; 0.935 µM in [6]. The GI50 is 0.356 µM in [7], 1.14 µM in assay [8], 0.556 µM in [9] and 2.91 µM in [10]. The TGI in assay [1] was 80.3 µM; in [2] it was > 100 µM; in assay [3], 12.8 µM; in assay [4] it was > 34.6 µM; in [5] it was > 72.4 µM; in assay [6], > 100 µM. Further, the TGI in assay [7] was > 54 µM; in assay [8] it was 27 µM; in [9] it was > 63.3 µM; in [10] it was 77.9 µM.
As to `O=C(c1ccccc1)c1c(NCC(O)CN2CCCC2)n(Cc2ccccc2)c(=O)n(Cc2ccccc2)c1=O` (centres undefined), the GI50 in assay [1] was 21.7 µM; in assay [2], 16.1 µM; in [3], 12.5 µM; in assay [4], 19.7 µM; in assay [5], 21 µM; in assay [6], 19.6 µM. Also, the GI50 was 15.6 µM in assay [7], 20.5 µM in assay [8], 24.3 µM in [9] and 23.9 µM in assay [10]. The TGI in assay [1] was 49.5 µM; in assay [2], 29.6 µM; in assay [3] it was 25 µM; in assay [4], > 100 µM; in assay [5] it was 42.3 µM; in assay [6], 40.8 µM. Further, the TGI is 30.4 µM in [7], 36.5 µM in [8], 59 µM in [9] and 57.1 µM in [10].
As for `CCC[CH2][Sn]([CH2]CCC)([O]C(=O)c1c(F)cccc1F)[O]C(=O)c1c(F)cccc1F`, the GI50 in assay [1] was 2.22 µM; in assay [2], 0.443 µM; in assay [3] it was 1.24 µM; in assay [4], 0.239 µM; in assay [5] it was 0.671 µM; in assay [6] it was 0.565 µM. Also, the GI50 in [7] is 0.32 µM; in [8], 1.18 µM; in assay [9], 0.38 µM; in [10], 1.28 µM. Also, the TGI in assay [1] was 3.69 µM; in [2], 1.6 µM; in [3], 2.52 µM; in assay [4], 0.818 µM; in [5] it was 1.99 µM; in assay [6], 1.83 µM. Further, the TGI in assay [7] worked out at 1.23 µM; in assay [8] it was 2.41 µM; in assay [9] it was 1.7 µM; in assay [10], 2.55 µM.
With `COc1cccc([C@H]2CC(=O)c3cc4c(cc3N2)OCO4)c1`, the GI50 was 2.56 µM in assay [1]; 0.0491 µM in assay [2]; 0.0271 µM in assay [3]; 0.0316 µM in assay [4]; 0.0414 µM in [5]; 4.7 µM in [6]. The GI50 was 0.0676 µM in assay [7], 0.0283 µM in assay [8] and 0.151 µM in [9]. Moreover, the TGI in [1] is > 100 µM; in assay [2] it was > 100 µM; in assay [3], 0.226 µM; in assay [4], 0.0821 µM; in assay [5], > 100 µM; in assay [6], > 100 µM. For the same molecule, the TGI in assay [7] was > 100 µM; in [8], 0.115 µM; in [9] it was > 100 µM; in [10], > 100 µM.
Consider `O=P([O-])(O)OP(=O)([O-])O.[NH-][C@H]1CCCC[C@@H]1[NH-].[OH-].[OH-].[Pt+4]`, for which the GI50 in [1] was 19.3 µM; in assay [2], 17.2 µM; in assay [3] it was 42.3 µM; in [4], > 100 µM; in assay [5], 37 µM; in [6], 20.9 µM. The GI50 in assay [7] is 55.8 µM; in [8], 28.8 µM; in [9] it was 34.4 µM; in assay [10] it was 71.2 µM. Moreover, the TGI was 35.4 µM in assay [1]; 33.8 µM in [2]; > 100 µM in [3]; > 100 µM in assay [4]; > 100 µM in [5]; 46.8 µM in assay [6]. Besides, the TGI in assay [7] is > 100 µM; in assay [8], 85.2 µM; in assay [9] it was > 100 µM; in assay [10] it was > 100 µM.
Take `COC(=O)[C@@H](NC(=O)NC(=O)NC(=O)CI)C(C)C`: the GI50 was 18.3 µM in assay [1]; 17.3 µM in assay [2]; 17.4 µM in assay [3]; 2.58 µM in assay [4]; 13.6 µM in assay [5]; 15.1 µM in assay [6]. Further, the GI50 was 2.04 µM in assay [7], 13.4 µM in [8], 1.41 µM in assay [9] and 3.19 µM in [10]. Also, the TGI was 33.7 µM in assay [1]; 31.1 µM in assay [2]; 31.6 µM in [3]; 7.05 µM in [4]; 27.8 µM in assay [5]; 32.7 µM in assay [6]. Besides, the TGI in assay [7] is 4.19 µM; in assay [8], 27.4 µM; in [9] it was 2.73 µM; in assay [10], 13.7 µM.
For `CN1CCN(c2ccc(C(=O)Nc3n[nH]c4ccc(Cc5cc(F)cc(F)c5)cc34)c(NC3CCOCC3)c2)CC1`, the GI50 in assay [1] was 2.66 µM; in assay [2], 1.64 µM and 1.54 µM; in [3] it was 1.62 µM and 1.56 µM; in assay [4] it was 2.18 µM and 1.82 µM; in assay [5] it was 3.72 µM and 1.42 µM; in assay [6] it was 2.25 µM and 1.45 µM. For the same molecule, the GI50 in assay [7] is 1.32 µM and 1.33 µM; in [8] it was 1.49 µM and 1.59 µM; in [9] it was 8.53 µM and 1.56 µM; in assay [10], 6.95 µM and 1.45 µM. Further, the TGI in [1] is > 10 µM; in assay [2], 3.29 µM and 2.95 µM; in assay [3], 3.01 µM and 2.98 µM; in assay [4] it was 7.18 µM and 4.42 µM; in [5], > 10 µM and 2.82 µM; in assay [6], > 10 µM and 2.87 µM. The TGI in [7] was 3.44 µM and 2.76 µM; in [8] it was 3 µM and 3.18 µM; in assay [9], > 10 µM and 3.07 µM; in assay [10], > 10 µM and 4.09 µM.
